Measurements taken from patent publication US20080261994A1, “CYCLOPROPANE COMPOUNDS AND PHARMACEUTICAL USE THEREOF” (Japan Tobacco Inc., priority 2003, published 2008).
Where two headings read alike, the source gives them in different places.

How the values were obtained:
Assay type in all cases: biochemical
aggrecanase-1 = biological target: T1, aggrecanase-1 (Homo sapiens, UniProt O75173); assay: Aggrecanase-1 inhibitory action (Particle Assay, GAG release from aggrecan-containing polyacrylamide particles)
T1 sequence (O75173 213-837): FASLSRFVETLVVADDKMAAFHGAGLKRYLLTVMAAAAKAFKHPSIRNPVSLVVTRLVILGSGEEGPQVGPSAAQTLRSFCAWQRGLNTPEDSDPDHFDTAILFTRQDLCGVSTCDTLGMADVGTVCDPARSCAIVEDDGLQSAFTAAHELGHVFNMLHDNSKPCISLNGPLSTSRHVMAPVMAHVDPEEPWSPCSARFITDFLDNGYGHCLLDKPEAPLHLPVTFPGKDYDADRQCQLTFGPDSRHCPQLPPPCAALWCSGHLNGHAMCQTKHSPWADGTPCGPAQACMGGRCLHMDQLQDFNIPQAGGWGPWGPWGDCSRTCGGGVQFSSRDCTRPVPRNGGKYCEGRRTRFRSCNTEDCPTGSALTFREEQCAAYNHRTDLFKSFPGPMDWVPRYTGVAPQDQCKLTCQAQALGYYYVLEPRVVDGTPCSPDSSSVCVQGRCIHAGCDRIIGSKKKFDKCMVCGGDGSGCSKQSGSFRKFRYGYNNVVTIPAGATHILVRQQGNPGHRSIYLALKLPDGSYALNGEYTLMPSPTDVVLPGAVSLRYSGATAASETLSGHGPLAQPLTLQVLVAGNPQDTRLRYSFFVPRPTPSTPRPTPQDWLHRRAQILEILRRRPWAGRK
Procedure, shortened: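 Readout was dimethylmethylene blue absorbance (595 nm) of glycosaminoglycan liberated into supernatant, calibrated with whale chondroitin sulfate. Substrate was aggrecan in polyacrylamide particles, digested 15 h at 37° C in Tris-HCl; TC50 (μM) derived from inhibition relative to no-enzyme and no-inhibitor controls.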

MMP-1 = biological target: T2, MMP-1 (Homo sapiens, UniProt P03956); assay: MMP-1 inhibitory action (Type I collagen Activity Measurement kit, FITC-labeled collagen type I)
T2 sequence (P03956 100-469): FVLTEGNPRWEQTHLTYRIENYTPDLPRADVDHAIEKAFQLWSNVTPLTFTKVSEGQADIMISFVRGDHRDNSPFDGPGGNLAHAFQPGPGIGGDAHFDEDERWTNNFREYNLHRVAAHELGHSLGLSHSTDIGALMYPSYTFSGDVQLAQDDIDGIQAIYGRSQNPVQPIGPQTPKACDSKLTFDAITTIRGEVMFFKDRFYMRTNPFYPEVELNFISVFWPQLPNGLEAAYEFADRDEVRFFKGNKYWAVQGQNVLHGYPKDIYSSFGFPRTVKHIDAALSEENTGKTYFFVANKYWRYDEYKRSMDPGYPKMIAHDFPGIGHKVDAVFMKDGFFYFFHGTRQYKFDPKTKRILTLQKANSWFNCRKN

Recombinant Human MMP-13 = biological target: T3, Recombinant Human MMP-13 (Homo sapiens, UniProt P45452); assay: MMP-13 inhibitory activity (MMP-13 specific fluorescent substrate with quencher)
T3 construct: purchased R&D systems 511-MM
Procedure, shortened: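 IC50 (μM) derived from % inhibition, normalised to wells without enzyme and without inhibitor, fluorescence read at 325/405 nm. Enzyme and compound preceded addition of the quenched 7-MCA…DPA substrate; Tris-HCl buffer, 25 °C for 1 h, acetic-acid stop.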

[1] = aggrecanase-1 inhibitory action, read-out: IC50 AG1 (Experimental Example 1)
[2] = MMP-1 inhibitory action, FITC-labeled collagen type I, 37° C. for 3 hr, read-out: IC50 MMP1 (Experimental Example 2)
[3] = Recombinant Human MMP-13, fluorescent substrate, 25° C. for 1 h, read-out: IC50 MMP13 (Experimental Example 3)
[4] = Experimental Example 1, read-out: IC50 AG1
[5] = Experimental Example 2, read-out: IC50 MMP1
[6] = Experimental Example 3, read-out: IC50 MMP13

| Compound | IC50 (aggrecanase-1; [1]) [nM] | IC50 (MMP-1; [2]) [nM] | IC50 (Recombinant Human MMP-13; [3]) [nM] | IC50 (aggrecanase-1; [4]) [nM] | IC50 (MMP-1; [5]) [nM] | IC50 (Recombinant Human MMP-13; [6]) [nM] |
| --- | --- | --- | --- | --- | --- | --- |
| O=C(O)[C@]1(NS(=O)(=O)c2ccc(-c3cc4ccccc4s3)s2)C[C@@H]1c1ccccc1 [Example 2-113] | < 100 | < 1000 | < 100 |  |  |  |
| CN1CCN(C(=O)OCCCc2cccc(C3CC3(NS(=O)(=O)c3ccc(-c4cc(C(F)(F)F)on4)s3)C(=O)O)c2)CC1 (stereo not drawn) [Example 2-238] | < 1000 | ≥ 1000 | < 100 |  |  |  |
| O=C(NCCO)c1ccccc1C1CC1(NS(=O)(=O)c1ccc(-c2ccc(Cl)cc2)s1)C(=O)O (stereo not drawn) [Example 2-72] | < 100 | ≥ 10000 | < 1000 |  |  |  |
| O=C(O)C1(NS(=O)(=O)c2ccc(-c3cc(C(F)(F)F)on3)s2)CC1c1cccc(CCO)c1 (stereo not drawn) [Example 2-268] |  |  |  | < 100 | ≥ 1000 | < 100 |
| CC(C)(O)C#Cc1ccc(S(=O)(=O)N[C@@]2(C(=O)O)C[C@@H]2c2ccccc2)s1 [Example 2-130] | ≥ 1000 | ≥ 10000 | ≥ 1000 |  |  |  |
| O=C(O)C1(NS(=O)(=O)c2ccc(-c3ccc(Cl)cc3)cc2)CC1c1cccc(NCc2cccnc2)c1 (stereo not drawn) [Example 1-3] | < 100 | ≥ 1000 | < 100 |  |  |  |
| O=C(O)C1(NS(=O)(=O)c2ccc(-c3ccc(Cl)cc3)s2)CC1c1ccc(Br)cc1 (stereo not drawn) [Example 2-203] | < 1000 | ≥ 10000 | < 100 |  |  |  |
| CCCC(=O)c1ccc(S(=O)(=O)NC2(C(=O)O)CC2c2ccccc2)s1 (stereo not drawn) [Example 2-117] | ≥ 10000 | ≥ 10000 | ≥ 10000 |  |  |  |
| O=C(Cc1ccccc1C1CC1(NS(=O)(=O)c1ccc(-c2cc(C(F)(F)F)on2)s1)C(=O)O)N1CCOCC1 (stereo not drawn) [Example 2-243] | < 1000 | ≥ 1000 | < 100 |  |  |  |

Now from value to compound:

| IC50 (aggrecanase-1; [1]) [nM] | IC50 (MMP-1; [2]) [nM] | IC50 (Recombinant Human MMP-13; [3]) [nM] | IC50 (aggrecanase-1; [4]) [nM] | IC50 (MMP-1; [5]) [nM] | IC50 (Recombinant Human MMP-13; [6]) [nM] | Compound |
| --- | --- | --- | --- | --- | --- | --- |
|  |  |  | ≥ 1000 | ≥ 10000 | < 1000 | COCCN(C)C(=O)c1ccc(C2(CCCOC(C)=O)CC2(NS(=O)(=O)c2ccc(-c3cc(C(F)(F)F)on3)s2)C(=O)O)cc1 (stereo not drawn) [Example 2-271] |
|  |  |  | ≥ 1000 | ≥ 10000 | ≥ 1000 | C[C@]1(c2ccccc2)C[C@@]1(NS(=O)(=O)c1ccc(-c2ccc(F)c(C#N)c2)s1)C(=O)O [Example 2-420] |
|  |  |  | < 1000 | < 1000 | < 100 | COCc1cc(-c2ccc(S(=O)(=O)N[C@@]3(C(=O)O)C[C@]3(C)c3ccccc3)s2)no1 [Example 2-403] |
|  |  |  | < 100 | ≥ 1000 | < 1000 | CSCC1(c2ccccc2)CC1(NS(=O)(=O)c1ccc(-c2ccc(Cl)cc2)s1)C(=O)O (stereo not drawn) [Example 2-432] |
|  |  |  | < 100 | ≥ 1000 | < 1000 | CC1[C@H](c2ccccc2)[C@]1(NS(=O)(=O)c1ccc(-c2ccc3nonc3c2)s1)C(=O)O (stereo partly drawn) [Example 2-517] |
|  |  |  | ≥ 10000 | ≥ 10000 | ≥ 1000 | CC(=O)c1ccc(S(=O)(=O)N[C@@]2(C(=O)O)C(C)[C@@H]2c2ccccc2)s1 (stereo partly drawn) [Example 2-425] |
|  |  |  | ≥ 1000 | ≥ 10000 | ≥ 1000 | C[C@]1(c2ccccc2)C[C@@]1(NS(=O)(=O)c1ccc(-c2ccc3nnn(O)c3c2)s1)C(=O)O [Example 2-487] |
|  |  |  | ≥ 1000 | ≥ 1000 | < 1000 | CC1[C@H](c2ccccc2)[C@]1(NS(=O)(=O)N1CCN(c2ccc(C(F)(F)F)cc2)C(=O)C1)C(=O)O (stereo partly drawn) [Example 2-504] |
|  |  |  | ≥ 1000 | ≥ 1000 | ≥ 1000 | CC(C)CCN1CCN(S(=O)(=O)N[C@@]2(C(=O)O)C(C)[C@@H]2c2ccccc2)CC1 (stereo partly drawn) [Example 2-530] |
|  |  |  | < 1000 | < 1000 | < 100 | CC(=O)Nc1cccc(-c2ccc(S(=O)(=O)N[C@@]3(C(=O)O)C[C@]3(C)c3ccccc3)s2)c1 [Example 2-480] |
|  |  |  | < 1000 | ≥ 1000 | < 1000 | CC1C(c2ccccc2)C1(NS(=O)(=O)c1ccc(-c2ccc(Cl)cc2)s1)C(=O)O (stereo not drawn) [Example 2-326] |
